What all share (experiment): cells
What all share (parameters): Viability of PDAC cell lines, ATPlite luminescence, 11-dose single-agent curve fit
A general note: Cellular ATP, detected with luciferase, serves as a proxy for viable cell number.

In one test the test system is AsPC-1. The note with it: Homo sapiens, ASPC1, 72 h, read-out: EC50 [nM]. As for the experimental part: (§1) Afterward, small amounts were transferred to 384-well intermediate plates (Greiner Bio-One GmbH, Germany). […] For drug combination screening, 1000 to 5000 cells were seeded into 384-well plates (CulturPlate™, Perkin Elmer, MA, USA) using a Multidrop™ Combi Reagent Dispenser (Thermo Scientific, MA, USA) in 50 µl medium per well 24 h prior to drug treatment (seeding densities see Appendix Table S1). […] The final DMSO concentration in each well was 0.2%. […] Eight wells per plate without library drug served as negative controls, and sixteen wells per plate containing 5 µM Staurosporine served as positive controls. […] Next, we analyzed the drug sensitivity of immortalized duct cell line HPDE to detect effects unrelated to pancreatic cancer.

Another test concerns BxPC-3. As to conditions: Homo sapiens, BXPC-3, 72 h, read-out: EC50 [nM]. As for the experimental part: as §1
The next test relates to Capan-1. The note with it: Homo sapiens, CAPAN-1, 72 h, read-out: EC50 [nM]. As for the experimental part:
as §1

The next test relates to Colo-357. The note with it: Homo sapiens, COLO357, 72 h, read-out: EC50 [nM]. As for the experimental part:
as §1

Another test has as its system Dan-G. The note with it: 72 h, read-out: EC50 [nM]. Here is the method: as §1
For the next test, the system named is FAMPAC. As to conditions: 72 h, read-out: EC50 [nM]. Here is the method: as §1
The subject of another test is HPDE. As to conditions: HPDE, 72 h, read-out: EC50 [nM]. As for the experimental part:
as §1

Another test deals with HuP-T4. The note with it: Homo sapiens, HuP-T4, 72 h, read-out: EC50 [nM]. As for the experimental part:
as §1

The next test has as its system MiaPaCa-2. As to conditions: Homo sapiens, MIA PaCa-2, 72 h, read-out: EC50 [nM]. Here is the method: as §1
In the next test the test system is PANC-1. As to conditions: Homo sapiens, PANC-1, 72 h, read-out: EC50 [nM]. Here is the method:
as §1

The subject of the next test is PSN-1. As to conditions: Homo sapiens, PSN1, 72 h, read-out: EC50 [nM]. Here is the method: as §1
Another test deals with PaTu-8988-T. The note with it: Homo sapiens, PaTu 8988t, 72 h, read-out: EC50 [nM]. As for the experimental part: as §1
The test system of a further test is Suit2-07. As to conditions: 72 h, read-out: EC50 [nM]. As for the experimental part: as §1

Experimental findings from article PMC11876601 (Molecular Systems Biology, 2025) are described below.

The EC50 is the concentration at which the effect is half-maximal.

With `Cc1[nH]c(/C=C2\C(=O)Nc3ccccc32)c(C)c1CCC(=O)O` [Orantinib], the EC50 with AsPC-1 was 145 nM; in the test with BxPC-3 it was 1040 nM; in the test with Capan-1 it was 17.6 nM; with Colo-357 it was 2.98 nM; with Dan-G, 487 nM; with FAMPAC it was 0.01 nM. Further, the EC50 in the test with HPDE is 61.9 nM; with HuP-T4, 2430 nM; with MiaPaCa-2, 47 nM; with PANC-1, 568 nM; in the test with PSN-1, 366 nM; in the test with PaTu-8988-T it was 135 nM. For the same molecule, the EC50 in the test on Suit2-07 was 2.77 nM.
Take `Cc1c(F)cc(C(=O)NC2CC2)cc1-c1ccc(C(=O)NCC(C)(C)C)cn1` [Losmapimod]: the EC50 is 361 nM in the test on AsPC-1; 536 nM in the test on BxPC-3; 150 nM in the test on Capan-1; 26.1 nM in the test on Colo-357; 363 nM in the test with Dan-G; 0.11 nM with FAMPAC. Further, the EC50 with HPDE is 25.6 nM; with HuP-T4, 218 nM; with MiaPaCa-2, 449 nM; in the test with PANC-1 it was 95.7 nM; in the test on PSN-1, 130 nM; in the test with PaTu-8988-T, 1180 nM. In addition, the EC50 in the test on Suit2-07 was found to be 10.7 nM.
Take `CCC(=O)N1CC[C@H](Nc2ncnc3c2CN(c2cnc(OC)c(C(F)(F)F)c2)CC3)C1` [Leniolisib]: the concentration for a half-maximal effect (EC50) with AsPC-1 is 2110 nM; in the test with BxPC-3, 2210 nM; in the test on Capan-1, 4340 nM; with Colo-357, 3830 nM; in the test on Dan-G it was 6460 nM; with FAMPAC, 2610 nM. Further, the EC50 in the test on HPDE is 6030 nM; in the test with HuP-T4, 733 nM; in the test on MiaPaCa-2, greater than 10000 nM; with PANC-1, greater than 10000 nM; with PSN-1, 8970 nM; with PaTu-8988-T, 9180 nM. For the same molecule, the EC50 in the test on Suit2-07 is 4720 nM.
Turning to `CC1(C)CNc2cc(NC(=O)c3cccnc3NCc3ccncc3)ccc21` [Motesanib], the EC50 is 9400 nM in the test with AsPC-1; greater than 10000 nM in the test with BxPC-3; 9170 nM with Capan-1; 3910 nM with Colo-357; greater than 10000 nM with Dan-G; greater than 10000 nM in the test on FAMPAC. In addition, the EC50 was 8730 nM in the test with HPDE; 515 nM in the test with HuP-T4; 7350 nM in the test on MiaPaCa-2; greater than 10000 nM with PANC-1; 2550 nM with PSN-1; 455 nM with PaTu-8988-T. In the test with Suit2-07, the EC50 came to 942 nM.
With `CCCS(=O)(=O)N[C@H]1C[C@@H](N(C)c2ncnc3[nH]ccc23)C1` [Abrocitinib], the EC50 in the test on AsPC-1 is 3850 nM; with BxPC-3 it was 275 nM; with Capan-1, 37.4 nM; in the test with Colo-357, 9870 nM; in the test on Dan-G, greater than 10000 nM; in the test on FAMPAC, 2.68 nM. Moreover, the EC50 in the test with HPDE is 5620 nM; in the test with HuP-T4, 643 nM; in the test on MiaPaCa-2, 2760 nM; in the test with PANC-1, 140 nM; in the test with PSN-1, greater than 10000 nM; in the test on PaTu-8988-T it was 3800 nM. In the test on Suit2-07, the EC50 amounted to 901 nM.
Take `CCCS(=O)(=O)Nc1ccc(F)c(C(=O)c2c[nH]c3ncc(-c4ccc(Cl)cc4)cc23)c1F` [Vemurafenib]: the EC50 with AsPC-1 was 869 nM; with BxPC-3 it was greater than 10000 nM; in the test on Capan-1 it was greater than 10000 nM; in the test on Colo-357, 5000 nM; in the test with Dan-G it was greater than 10000 nM; in the test with FAMPAC, 2990 nM. Besides, the EC50 in the test with HPDE was greater than 10000 nM; in the test with HuP-T4, greater than 10000 nM; in the test with MiaPaCa-2 it was greater than 10000 nM; in the test on PANC-1 it was 6.65 nM; in the test on PSN-1 it was greater than 10000 nM; with PaTu-8988-T, 708 nM. The EC50 in the test on Suit2-07 worked out at 1590 nM.
